Assay: Fluorescence properties and quantum yield measurements of the BAA library
Format: physicochemical
Parameters: FWHM (full-width-at half max): unit not given here
Details: anhydrous DMSO; for λmax ABS / λmax EM: polystyrene 96 well plate; for FWHM (full-width-at half max): emission; for φfl (quantum yield): relative to reference fluorophore at three concentrations
Procedure: General Instruments. Synthesized sample purification was performed with an Agilent 1260 Infinity HPLC utilizing a C18 column (150mm×21.2 mm). MS (HRMS, ESI) spectra data was collected with an Agilent 6244 TOF LC/MS with diode array detector VL+ and C18 column (4.6 mm×50 mm). Absorbance and fluorescence data were measured on a SpectraMax M5 Microplate reader. NMR spectra, ^1H and ^13C, were recorded on a Bruker ARK400 spectrometer. BAA microscopy screening in cells for organelle specificity and signal-to-background ratio was completed with an Axio Zeiss Light Microscope and 63× oil immersion objective.
Fluorescence Properties and Quantum Yield Measurements. Spectroscopic characterizations were performed in anhydrous DMSO in polystyrene 96 well plate. Analysis included the maximum absorbance wavelength, maximum fluorescence emission wavelength, full-width-at half max, and quantum yield. Quantum yields (φfl) were determined by comparing the area under the emission spectrum of the BAA compound to a reference fluorophore solution at three concentrations using equation 1, where Grad represents the gradient from the plots of integrated fluorescence intensity vs absorbance at three concentrations and q is the refractive index of the solvent. Fluorescein in 0.1 M NaOH (φfl=0.91)^3 was the reference for samples with a max absorbance up to 510 nm, where an excitation of 470 nm was used with the emission integrated between 490 to 800 nm. Rhodamine B in ethanol (φfl=0.70) was the reference for samples with a max absorbance between 511-595 nm, where an excitation of 525 nm was used with the emission integrated between 545 to 800 nm. Cresyl violet in methanol (φfl=0.54)^4 was the reference for samples with a max absorbance above 595 nm, where an excitation of 570 nm was used with the emission integrated between 590 to 800 nm.

With `CC1=CC(C=Cc2cc(F)ccc2O)=[N+]2C1=Cc1ccc(C(=Cc3cc(F)ccc3O)CC(=O)O)n1[B-]2(F)F` [BAA-31b] the “Stokes Shift” value was 12 nm, the “λmax ABS” value was 576 nm and the “λmax EM” value was 588 nm. For the same compound, the “FWHM (full-width-at half max)” value was 34 and the “φfl (quantum yield)” value was 0.28.

In the case of `CC1=CC(C=Cc2ccc(Oc3ccc([N+](=O)[O-])cc3)cc2)=[N+]2C1=Cc1ccc(CCC(=O)O)n1[B-]2(F)F` [BAA-32a], the “Stokes Shift” value is reported as 10 nm, the “λmax ABS” value is reported as 574 nm and the “λmax EM” value is reported as 584 nm. The “FWHM (full-width-at half max)” value was 32 and the “φfl (quantum yield)” value was 0.23.

For `CC1=CC(C=Cc2ccc(Br)cc2S(C)(=O)=O)=[N+]2C1=Cc1ccc(CCC(=O)O)n1[B-]2(F)F` [BAA-33a], the “Stokes Shift” value was 12 nm, the “λmax ABS” value was 575 nm and the “λmax EM” value was 587 nm. The “FWHM (full-width-at half max)” value was 35 and the “φfl (quantum yield)” value was 0.15.

In the case of `CC1=CC(C=Cc2cnc(-c3ccc(Cl)cc3)s2)=[N+]2C1=Cc1ccc(C(=Cc3cnc(-c4ccc(Cl)cc4)s3)CC(=O)O)n1[B-]2(F)F` [BAA-34b], the “Stokes Shift” value is reported as 11 nm, the “λmax ABS” value is reported as 570 nm and the “λmax EM” value is reported as 581 nm. For the same compound, the “FWHM (full-width-at half max)” value was 31 and the “φfl (quantum yield)” value was 0.96.

For `CC1=CC(C=Cc2ccccc2Oc2ccc(C#N)cc2)=[N+]2C1=Cc1ccc(C(=Cc3ccccc3Oc3ccc(C#N)cc3)CC(=O)O)n1[B-]2(F)F` [BAA-35b], the “Stokes Shift” value was 9 nm, the “λmax ABS” value was 571 nm and the “λmax EM” value was 580 nm. The “FWHM (full-width-at half max)” value was 32 and the “φfl (quantum yield)” value was 0.25.

With `CC1=CC(C=Cc2ccc(OCc3sccc3C#N)cc2)=[N+]2C1=Cc1ccc(C(=Cc3ccc(OCc4sccc4C#N)cc3)CC(=O)O)n1[B-]2(F)F` [BAA-36b] the “Stokes Shift” value was 13 nm, the “λmax ABS” value was 579 nm and the “λmax EM” value was 592 nm. The “FWHM (full-width-at half max)” value was 37 and the “φfl (quantum yield)” value was 0.35.

In the case of `CC1=CC(C=Cc2ccc(-c3cccnc3)cc2)=[N+]2C1=Cc1ccc(CCC(=O)O)n1[B-]2(F)F` [BAA-37a], the “Stokes Shift” value is reported as 10 nm, the “λmax ABS” value is reported as 568 nm and the “λmax EM” value is reported as 578 nm. For the same compound, the “FWHM (full-width-at half max)” value was 55 and the “φfl (quantum yield)” value was 0.54.

For `CC1=CC(C=Cc2ccc(-c3cccnc3)cc2)=[N+]2C1=Cc1ccc(C(=Cc3ccc(-c4cccnc4)cc3)CC(=O)O)n1[B-]2(F)F` [BAA-37b], the “Stokes Shift” value was 9 nm, the “λmax ABS” value was 569 nm and the “λmax EM” value was 578 nm. For the same compound, the “FWHM (full-width-at half max)” value was 30 and the “φfl (quantum yield)” value was 0.55.

For `CC1=CC(C=Cc2cccc(N3CCCC3)n2)=[N+]2C1=Cc1ccc(CCC(=O)O)n1[B-]2(F)F` [BAA-38a], the “Stokes Shift” value was 2 nm, the “λmax ABS” value was 579 nm and the “λmax EM” value was 581 nm. The “FWHM (full-width-at half max)” value was 33 and the “φfl (quantum yield)” value was 0.07.

In the case of `CC1=CC(C=Cc2ccc(Cl)nc2)=[N+]2C1=Cc1ccc(CCC(=O)O)n1[B-]2(F)F` [BAA-39a], the “Stokes Shift” value is reported as 51 nm, the “λmax ABS” value is reported as 606 nm and the “λmax EM” value is reported as 657 nm. For the same compound, the “FWHM (full-width-at half max)” value was 79 and the “φfl (quantum yield)” value was 0.19.

For `COc1cc(C=CC2=[N+]3C(=Cc4ccc(C(=Cc5ccc(OCc6cccc(C(F)(F)F)c6)c(OC)c5)CC(=O)O)n4[B-]3(F)F)C(C)=C2)ccc1OCc1cccc(C(F)(F)F)c1` [BAA-40b], the “Stokes Shift” value was 18 nm, the “λmax ABS” value was 583 nm and the “λmax EM” value was 601 nm. For the same compound, the “FWHM (full-width-at half max)” value was 45 and the “φfl (quantum yield)” value was 0.26.

With `COc1cc(C=CC2=[N+]3C(=Cc4ccc(C(=Cc5ccc(OCc6ccccc6C)c(OC)c5)CC(=O)O)n4[B-]3(F)F)C(C)=C2)ccc1OCc1ccccc1C` [BAA-41b] the “Stokes Shift” value was 20 nm, the “λmax ABS” value was 582 nm and the “λmax EM” value was 602 nm. The “FWHM (full-width-at half max)” value was 47 and the “φfl (quantum yield)” value was 0.36.

With `CC1=CC(C=Cc2ccc(OC(=O)c3ccc(Cl)cc3Cl)cc2)=[N+]2C1=Cc1ccc(CCC(=O)O)n1[B-]2(F)F` [BAA-42a] the “Stokes Shift” value was 10 nm, the “λmax ABS” value was 570 nm and the “λmax EM” value was 580 nm. For the same compound, the “FWHM (full-width-at half max)” value was 30 and the “φfl (quantum yield)” value was 0.36.

Reference: patent publication US20170233414A1, “DERIVATIVES OF BODIPY” (OREGON HEALTH & SCIENCE UNIVERSITY, priority 2016, published 2017)
